This note sets out measurements from US20230219951A1, “PYRIDINE-PYRIMIDINE DERIVATIVE, PREPARATION METHOD THEREFOR AND PHARMACEUTICAL USE THEREOF” (Jiangsu Hengrui Pharmaceuticals Co., Ltd., priority 2020, published 2023).

The nature of series [1]: Pharmacokinetic evaluation in mice. It counts as in vivo. The note with it: female, mouse, plasma, po, C57 mice, intragastric administration, 2 mg/kg. As to the method: The drug concentration in the plasma of the test animals (mice) at different time points after intragastric administration (i.g.) of compound 18-p1 was determined by using an LC/MS/MS method. The pharmacokinetic behavior of the compound of the present disclosure in mice was studied and its pharmacokinetic profile was evaluated.
Nine C57 mice, female, purchased from Beijing Vital River Laboratory Animal Technology Co., Ltd., with animal production license number of SOCK (Shanghai) 2017-0005.
An amount of compound 18-p1 was weighed, dissolved with 5% by volume of DMSO and 5% tween 80 (Shanghai Titan Scientific Co., Ltd.), and then prepared into a 0.1 mg/mL clear solution with 90% normal saline.
Intragastric administration: the mice were intragastrically administered at a dose of 2.0 mg/kg and a volume of 20.0 mL/kg.
The compound 18-p1 was administered intragastrically to mice, and 0.1 mL of blood was collected from the orbit before administration and 0.25 h, 0.5 h, 1.0 h, 2.0 h, 4.0 h, 6.0 h, 8.0 h, 11.0 h and 24.0 h after administration. The blood was placed in an EDTA-K2 anticoagulation tube and centrifuged at 10,000 rpm for 1 min (4° C.), and plasma was separated out within 1 h and then stored at −20° C. for testing. The process from blood sampling to centrifugation was performed under an ice bath.
The content of the test compounds at different concentrations in plasma of mice after administration was determined: 10 μL of plasma of mice at each time point after administration was taken, and 200 μL of methanol (containing an internal standard solution camptothecin, 100 ng/mL) was added; the mixture was vortexed for 1 min, and centrifuged for 10 min (18,000 r/min). 3 μL of supernatant was taken from the plasma sample for LC/MS/MS analysis.

The target in the next series is T1, CYP3A4M (Homo sapiens, UniProt P08684).
T1 construct: tissue Corning Gentest 452161; host or cells: human liver microsomes
Kind of series: Human liver microsome CYP450 inhibition, CYP3A4M midazolam 1-hydroxylation. Conditions: human liver microsomes, midazolam probe substrate. Format: in vitro ADME. As to the method:
The inhibition effect of the compounds of the present disclosure on the human liver microsome CYP450 enzyme was determined by the following method:
An appropriate amount of human liver microsome stock solution (20 mg/mL) was diluted to obtain a 0.25 mg/mL microsome solution with 7.5 mM MgC12 solution for later use (prepared right before use).
b. An appropriate amount of the stock solution was precisely pipetted, and diluted into series solution I at the concentrations of 10 mM, 3 mM, 1 mM, 0.3 mM, 0.03 mM and 0.003 mM with an appropriate amount of DMSO solution. An appropriate amount of the above series solution I was precisely pipetted, and diluted to obtain series solution II at the concentrations of 3 mM, 1 mM, 0.3 mM, 0.1 mM, 0.03 mM, 0.003 mM and 0.0003 mM with an appropriate amount of acetonitrile. An appropriate amount of the above series solution II was precisely pipetted, and diluted with PBS to obtain a working solution at the concentrations of 150 μM, 50 μM, 15 μM, 5μM, 1.5 μM, 0.15 μM and 0.015 μM for later use.
a. […]
The values were calculated by Graphpad Prism to obtain the IC50 values for the inhibition of drugs on CYP2C19 (S)-mephenytoin 4′-hydroxylation and CYP3A4M midazolam 1-hydroxylation metabolism in human liver microsomes, as shown in Table 6.
(In general: Liver microsomes are vesicles of endoplasmic reticulum, rich in cytochrome P450 enzymes.)

Series [2] deals with ERK phosphorylation of H358 cells. Nature of the series: Inhibition of ERK phosphorylation of H358 cells (HTRF pERK/total ERK). Format: cell-based. The note with it: Homo sapiens, NCI-H358, 1 h incubation, pERK/total ERK ratio. The procedure, abridged: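 H358 (KRAS G12C) cells were treated 1 h at 37°C with compound, 9 points by 5-fold dilution from 10 μM (final), 0.1% DMSO blank. Lysates were probed by HTRF with phospho-ERK1/2 and total-ERK1/2 antibodies overnight at room temperature, and IC50 was fitted from the pERK/total ERK ratio.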
In general terms: TR-FRET usually uses a lanthanide donor and a delayed reading to cut background.

Some results are limits rather than exact numbers.

The term half-life denotes how long it takes for the measured level to halve. A word on the IC50: it is the midpoint of a concentration-inhibition curve.

T1 sequence (P08684 whole entry): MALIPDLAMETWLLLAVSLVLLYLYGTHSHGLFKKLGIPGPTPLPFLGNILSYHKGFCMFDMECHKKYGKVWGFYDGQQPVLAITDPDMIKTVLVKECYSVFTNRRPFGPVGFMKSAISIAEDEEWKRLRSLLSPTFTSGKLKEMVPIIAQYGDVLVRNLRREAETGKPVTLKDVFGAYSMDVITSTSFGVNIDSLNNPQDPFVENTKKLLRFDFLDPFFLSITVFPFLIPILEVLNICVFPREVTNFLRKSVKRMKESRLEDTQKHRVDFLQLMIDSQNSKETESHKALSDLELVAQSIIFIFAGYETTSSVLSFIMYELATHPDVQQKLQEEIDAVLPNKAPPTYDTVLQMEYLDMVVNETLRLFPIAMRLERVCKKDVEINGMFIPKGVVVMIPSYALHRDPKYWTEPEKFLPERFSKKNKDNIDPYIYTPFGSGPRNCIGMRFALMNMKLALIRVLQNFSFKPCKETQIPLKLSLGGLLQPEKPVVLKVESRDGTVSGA

As to `Cc1nc(N[C@H](C)c2cccc(C(F)F)c2F)c2cc([C@]3(O)CC[C@@H](O)CC3)c(=O)[nH]c2n1` [Example 18-p1, 4-(((R)-1-(3-(difluoromethyl)-2-fluorophenyl)ethyl)amino)-6-((1s,4S)-1,4-dihydroxycyclohexyl)-2-methylpyrido[2,3-d]pyrimidin-7(8H)-one], the Vd/F in series [1] (read-out: Apparent distribution volume Vz/F) is 23.4 L/kg. The AUC(0-t) in series [1] (read-out: Area under curve AUC0-t) came out at 146 ng·h/mL. The CL/F in series [1] (read-out: Clearance CLz/F) is 225 mL/min/kg. The half-life in series [1] (read-out: Half-life T½ (converted)) is 1.2 h. In addition, the Cmax in series [1] (read-out: Plasma concentration Cmax) came out at 56.7 ng/mL. Besides, the values for the half-maximal inhibitory concentration (IC50) (on CYP3A4M; in series [2]) were more than 30 µM and 51 nM, respectively.
